Measured values published in the supplement of paper PMC13380429.

Key:
Conditions in all cases: 72 h
[1] = test system: Calu-3; experiment: cell viability relative to DMSO; higher = less toxic
[2] = test system: U2OS; experiment: as above
[3] = test system: Vero E6; experiment: as above
[4] = test system: Caco-2; experiment: as above
[5] = test system: HepG2; experiment: as above
[6] = test system: Calu-3; experiment: drug sensitivity score (DSS) for viability; higher = more toxic; extreme values may be limits of the assay
[7] = test system: U2OS; experiment: as above
[8] = test system: Vero E6; experiment: as above
[9] = test system: Caco-2; experiment: as above
[10] = test system: HepG2; experiment: as above
[11] = test system: Calu-3; experiment: relative viability EC50 (midpoint between 100% and the lowest measured viability); higher = less toxic
[12] = test system: Vero E6; experiment: as above
[13] = test system: HepG2; experiment: as above
[14] = test system: Caco-2; experiment: as above

SMILES	cell viability ([1]; 1 nM) [%]	cell viability ([1]; 10 nM) [%]	cell viability ([1]; 100 nM) [%]	cell viability ([1]; 1000 nM) [%]	cell viability ([1]; 10000 nM) [%]	cell viability ([2]; 1 nM) [%]	cell viability ([2]; 10 nM) [%]	cell viability ([2]; 100 nM) [%]	cell viability ([2]; 1000 nM) [%]	cell viability ([2]; 10000 nM) [%]	cell viability ([3]; 1 nM) [%]	cell viability ([3]; 10 nM) [%]	cell viability ([3]; 100 nM) [%]	cell viability ([3]; 1000 nM) [%]	cell viability ([3]; 10000 nM) [%]	cell viability ([4]; 1 nM) [%]	cell viability ([4]; 10 nM) [%]	cell viability ([4]; 100 nM) [%]	cell viability ([4]; 1000 nM) [%]	cell viability ([4]; 10000 nM) [%]	cell viability ([5]; 1 nM) [%]	cell viability ([5]; 10 nM) [%]	cell viability ([5]; 100 nM) [%]	cell viability ([5]; 1000 nM) [%]	cell viability ([5]; 10000 nM) [%]	drug sensitivity score [6]	drug sensitivity score [7]	drug sensitivity score [8]	drug sensitivity score [9]	drug sensitivity score [10]	relative viability EC50 [11] [nM]	relative viability EC50 [12] [nM]	relative viability EC50 [13] [nM]	relative viability EC50 [14] [nM]
C=CC(=O)Nc1ccc2ncnc(Nc3cccc(Br)c3)c2c1	96	79.1	46.5	32.9	35.4	96.8	107	93	87.9	62.8	96.8	89.6	71	50.7	19.7	83.2	86.7	92	71	70.6	100	98.7	95.2	93.6	65	21	3	13.6	6.7	2.7	22.9	287	–	–
CCCCC/N=c1\ccn(Cc2ccccc2)c2ccccc12	97	98.2	96.1	104	65.5	101	94.4	100	97.5	64.3	94.9	100	90.6	99.2	94.2	93.3	94.9	103	98.5	63	96.3	99.3	96	94.3	33.9	1.4	2.1	0	2	4.5	–	> 10000	2460	–
CCOC(=O)c1ncc2[nH]c3ccc(OCc4ccccc4)cc3c2c1COC	110	89.2	96.6	104	70.9	96	94.9	99	90.9	64.7	91.9	97.3	87.9	93.5	85	99.8	97	90.6	79.1	63.7	102	105	101	69.5	14.1	1	3.1	0.3	4.3	9	–	> 10000	1270	–
CNS(=O)(=O)Nc1nccc(Cc2c(C)c3ccc(Oc4ncccn4)cc3oc2=O)c1F	105	96	70.8	50.1	40.8	98.2	97.9	94.3	85.7	70.8	94.6	92.9	75.4	57	50.3	99.8	89.4	82.9	73.4	62.5	101	91.8	38.3	23.8	13.8	13.1	2.5	10.9	6.7	23.5	116	–	51.5	–
N#Cc1ccc(Cn2cncc2CN2CCN(c3cccc(Cl)c3)C(=O)C2)cc1	104	88.2	87.1	96.4	67.5	96.1	104	98.4	99.2	68.7	107	102	95.4	99.9	85.5	102	106	107	97.2	87	108	100	107	93.3	49.9	2.1	1.5	0.2	0.3	3.8	–	> 10000	2090	> 10000
O=C(Nc1ccc(S(=O)(=O)Nc2nccs2)cc1)C(c1ccccc1)c1ccccc1	–	–	–	–	–	–	–	–	–	–	–	–	–	–	–	105	101	113	99	103	104	105	103	110	95.3	–	–	–	0	0	–	–	> 10000	> 10000
Nc1nc(O)c2nc(Br)n([C@@H]3O[C@@H]4COP(=O)(O)O[C@H]4[C@H]3O)c2n1 [8-bromo-cGMP]	105	94.3	107	90.5	113	–	–	–	–	–	–	–	–	–	–	–	–	–	–	–	101	103	94.6	110	108	0	–	–	–	0	> 10000	–	> 10000	–
O=C(O)Cc1cc2ccccc2nc1C(=O)O [CCMQ]	–	–	–	–	–	–	–	–	–	–	–	–	–	–	–	106	111	103	98.2	98.4	107	110	95.6	109	96.9	–	–	–	0	0	–	–	> 10000	> 10000
